Measured values taken from PubChem BioAssay AID1919000 (Molecular Pharmacology Branch, DTP, NCI, 2023).
pIC50: −log10 of the molar value. Values joined by “and” are separate entries in the source; they are usually repeats but may differ in a detail not shown here. Equal values may be shown once.

Test system: 653999-131-R-J2-PDC complex spheroids, growth % test/control
Assay: Anticancer human tumor 653999-131-R-J2-PDC patient-derived lung adenocarcinoma cell line growth inhibition [AhR]
Settings: for viability, T/C: stronger effect = lower value
Outline: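 Agents were dosed in half-log steps down from roughly clinical Cmax, or from 10 microM where Cmax was unknown, alone and with AhR antagonists. Read-out: percent test/control growth of tumor spheroids containing HUVEC and MSC stromal cells.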

[1] = curve of first compound, second compound 0.1 µM
[2] = curve of first compound, second compound 0.316 µM
[3] = curve of first compound, second compound 1 µM
[4] = curve of first compound, second compound 3.16 µM
[5] = curve of first compound, second compound 10 µM
[6] = second compound 0.1 µM, first compound 0.000949 µM
[7] = second compound 0.1 µM, first compound 0.003 µM
[8] = second compound 0.1 µM, first compound 0.00949 µM
[9] = second compound 0.1 µM, first compound 0.03 µM
[10] = second compound 0.1 µM, first compound 0.0949 µM
[11] = second compound 0.1 µM, first compound 0.3 µM
[12] = second compound 0.316 µM, first compound 0.000949 µM
[13] = second compound 0.316 µM, first compound 0.003 µM
[14] = second compound 0.316 µM, first compound 0.00949 µM
[15] = second compound 0.316 µM, first compound 0.03 µM
[16] = second compound 0.316 µM, first compound 0.0949 µM
[17] = second compound 0.316 µM, first compound 0.3 µM
[18] = second compound 1 µM, first compound 0.000949 µM
[19] = second compound 1 µM, first compound 0.003 µM
[20] = second compound 1 µM, first compound 0.00949 µM
[21] = second compound 1 µM, first compound 0.03 µM
[22] = second compound 1 µM, first compound 0.0949 µM
[23] = second compound 1 µM, first compound 0.3 µM
[24] = second compound 3.16 µM, first compound 0.000949 µM
[25] = second compound 3.16 µM, first compound 0.003 µM
[26] = second compound 3.16 µM, first compound 0.00949 µM
[27] = second compound 3.16 µM, first compound 0.03 µM
[28] = second compound 3.16 µM, first compound 0.0949 µM
[29] = second compound 3.16 µM, first compound 0.3 µM
[30] = second compound 10 µM, first compound 0.000949 µM
[31] = second compound 10 µM, first compound 0.003 µM
[32] = second compound 10 µM, first compound 0.00949 µM
[33] = second compound 10 µM, first compound 0.03 µM
[34] = second compound 10 µM, first compound 0.0949 µM
[35] = second compound 10 µM, first compound 0.3 µM
[36] = second compound 0.1 µM, first compound 0.0316 µM
[37] = second compound 0.1 µM, first compound 0.1 µM
[38] = second compound 0.1 µM, first compound 0.316 µM
[39] = second compound 0.1 µM, first compound 1 µM
[40] = second compound 0.1 µM, first compound 3.16 µM
[41] = second compound 0.1 µM, first compound 10 µM
[42] = second compound 0.316 µM, first compound 0.0316 µM
[43] = second compound 0.316 µM, first compound 0.1 µM
[44] = second compound 0.316 µM, first compound 0.316 µM
[45] = second compound 0.316 µM, first compound 1 µM
[46] = second compound 0.316 µM, first compound 3.16 µM
[47] = second compound 0.316 µM, first compound 10 µM
[48] = second compound 1 µM, first compound 0.0316 µM
[49] = second compound 1 µM, first compound 0.1 µM
[50] = second compound 1 µM, first compound 0.316 µM
[51] = second compound 1 µM, first compound 1 µM
[52] = second compound 1 µM, first compound 3.16 µM
[53] = second compound 1 µM, first compound 10 µM
[54] = second compound 3.16 µM, first compound 0.0316 µM
[55] = second compound 3.16 µM, first compound 0.1 µM
[56] = second compound 3.16 µM, first compound 0.316 µM
[57] = second compound 3.16 µM, first compound 1 µM
[58] = second compound 3.16 µM, first compound 3.16 µM
[59] = second compound 3.16 µM, first compound 10 µM
[60] = second compound 10 µM, first compound 0.0316 µM
[61] = second compound 10 µM, first compound 0.1 µM
[62] = second compound 10 µM, first compound 0.316 µM
[63] = second compound 10 µM, first compound 1 µM
[64] = second compound 10 µM, first compound 3.16 µM
[65] = second compound 10 µM, first compound 10 µM
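Note: spheroids exposed to agents for seven days.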
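Throughout, for viability, T/C: 100% = DMSO vehicle control viability.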

SMILES: COc1cc(C2c3cc4c(cc3C(OC3OC5COC(C)OC5C(O)C3O)C3COC(=O)C23)OCO4)cc(OC)c1O (centres undefined)
- viability, T/C (compound 0.0316 µM): 99.2% and 89.8% and 87.8%
- viability, T/C (compound 0.1 µM): 79.3% and 77.8% and 77.9%
- viability, T/C (compound 0.316 µM): 61.9% and 67.7% and 69.8%
- viability, T/C (compound 1 µM): 49.1% and 55.2% and 50.4%
- viability, T/C (compound 3.16 µM): 39.3% and 43.3% and 43.5%
- viability, T/C (compound 10 µM): 29.4% and 25.6% and 27.5%
- pIC50 (curve of compound): 6.03 and 5.81 and 5.84

SMILES: CC(C)CC(NC(=O)C(Cc1ccccc1)NC(=O)c1cnccn1)B(O)O (centres undefined) + Cc1cncc(-c2nc(NCCc3c[nH]c4ccccc34)c3ncn(C(C)C)c3n2)c1
- pIC50 [1]: 7.65
- pIC50 [2]: 7.69
- pIC50 [3]: 7.67
- pIC50 [4]: 7.69
- pIC50 [5]: 8.37
- viability, T/C [6]: 94.5%
- viability, T/C [7]: 130%
- viability, T/C [8]: 103%
- viability, T/C [9]: 29.3%
- viability, T/C [10]: 9.65%
- viability, T/C [11]: 3.26%
- viability, T/C [12]: 108%
- viability, T/C [13]: 108%
- viability, T/C [14]: 113%
- viability, T/C [15]: 20%
- viability, T/C [16]: 8.44%
- viability, T/C [17]: 2.71%
- viability, T/C [18]: 100%
- viability, T/C [19]: 126%
- viability, T/C [20]: 112%
- viability, T/C [21]: 24%
- viability, T/C [22]: 7.89%
- viability, T/C [23]: 3.25%
- viability, T/C [24]: 118%
- viability, T/C [25]: 121%
- viability, T/C [26]: 112%
- viability, T/C [27]: 18.5%
- viability, T/C [28]: 4.53%
- viability, T/C [29]: 2.13%
- viability, T/C [30]: 59.6%
- viability, T/C [31]: 66.7%
- viability, T/C [32]: 20.5%
- viability, T/C [33]: 2.12%
- viability, T/C [34]: 0.89%
- viability, T/C [35]: 0.72%

SMILES: COc1cc(C2c3cc4c(cc3C(OC3OC5COC(C)OC5C(O)C3O)C3COC(=O)C23)OCO4)cc(OC)c1O (centres undefined) + CC(CO)NC(=O)c1cc(-c2ccc(Cl)cc2)nn(-c2cnn(C)c2)c1=O
- pIC50 [1]: 5.90
- pIC50 [2]: 6.05
- pIC50 [3]: 6.03
- pIC50 [4]: 6.08
- pIC50 [5]: 6.07
- viability, T/C [36]: 87.5%
- viability, T/C [37]: 79.2%
- viability, T/C [38]: 73.9%
- viability, T/C [39]: 51.9%
- viability, T/C [40]: 37.8%
- viability, T/C [41]: 28.9%
- viability, T/C [42]: 82.3%
- viability, T/C [43]: 85.8%
- viability, T/C [44]: 63.5%
- viability, T/C [45]: 48.4%
- viability, T/C [46]: 36.5%
- viability, T/C [47]: 26.6%
- viability, T/C [48]: 86.5%
- viability, T/C [49]: 80.2%
- viability, T/C [50]: 77.2%
- viability, T/C [51]: 48%
- viability, T/C [52]: 34.7%
- viability, T/C [53]: 30.2%
- viability, T/C [54]: 79.4%
- viability, T/C [55]: 80.9%
- viability, T/C [56]: 72.5%
- viability, T/C [57]: 44.1%
- viability, T/C [58]: 42.8%
- viability, T/C [59]: 28.8%
- viability, T/C [60]: 83.2%
- viability, T/C [61]: 83%
- viability, T/C [62]: 62.6%
- viability, T/C [63]: 49.4%
- viability, T/C [64]: 31.6%
- viability, T/C [65]: 25.6%

SMILES: O=C(c1cc(Cc2n[nH]c(=O)c3ccccc23)ccc1F)N1CCN(C(=O)C2CC2)CC1 + Cc1ccccc1N=Nc1ccc(NC(=O)c2ccnn2C)c(C)c1
- pIC50 [1]: < 5.00
- pIC50 [2]: < 5.00
- pIC50 [3]: < 5.00
- pIC50 [4]: < 5.00
- pIC50 [5]: < 5.00
- viability, T/C [36]: 106%
- viability, T/C [37]: 101%
- viability, T/C [38]: 91%
- viability, T/C [39]: 92.7%
- viability, T/C [40]: 88.4%
- viability, T/C [41]: 77.6%
- viability, T/C [42]: 96.1%
- viability, T/C [43]: 101%
- viability, T/C [44]: 95.5%
- viability, T/C [45]: 89.3%
- viability, T/C [46]: 89.6%
- viability, T/C [47]: 84.3%
- viability, T/C [48]: 94%
- viability, T/C [49]: 104%
- viability, T/C [50]: 94.8%
- viability, T/C [51]: 84.2%
- viability, T/C [52]: 91.8%
- viability, T/C [53]: 82%
- viability, T/C [54]: 95.1%
- viability, T/C [55]: 94.9%
- viability, T/C [56]: 91.5%
- viability, T/C [57]: 87.1%
- viability, T/C [58]: 85%
- viability, T/C [59]: 76.2%
- viability, T/C [60]: 89.8%
- viability, T/C [61]: 88.3%
- viability, T/C [62]: 87%
- viability, T/C [63]: 82.3%
- viability, T/C [64]: 84.4%
- viability, T/C [65]: 72.8%

SMILES: Nc1ccccc1NC(=O)c1ccc(CNC(=O)OCc2cccnc2)cc1 + CC(CO)NC(=O)c1cc(-c2ccc(Cl)cc2)nn(-c2cnn(C)c2)c1=O
- pIC50 [1]: 5.42
- pIC50 [2]: 5.45
- pIC50 [3]: 5.56
- pIC50 [4]: 5.46
- pIC50 [5]: 5.58
- viability, T/C [36]: 86.6%
- viability, T/C [37]: 93%
- viability, T/C [38]: 78.1%
- viability, T/C [39]: 65.4%
- viability, T/C [40]: 65.2%
- viability, T/C [41]: 13%
- viability, T/C [42]: 87.5%
- viability, T/C [43]: 85.2%
- viability, T/C [44]: 83.7%
- viability, T/C [45]: 68.7%
- viability, T/C [46]: 55.5%
- viability, T/C [47]: 15.6%
- viability, T/C [48]: 88%
- viability, T/C [49]: 94.3%
- viability, T/C [50]: 76.1%
- viability, T/C [51]: 65.5%
- viability, T/C [52]: 50.7%
- viability, T/C [53]: 14.2%
- viability, T/C [54]: 93.3%
- viability, T/C [55]: 95.6%
- viability, T/C [56]: 84.5%
- viability, T/C [57]: 70%
- viability, T/C [58]: 57.5%
- viability, T/C [59]: 12.9%
- viability, T/C [60]: 91%
- viability, T/C [61]: 101%
- viability, T/C [62]: 76.2%
- viability, T/C [63]: 67.2%
- viability, T/C [64]: 50.3%
- viability, T/C [65]: 6.65%

SMILES: CCc1c2c(nc3ccc(O)cc13)-c1cc3c(c(=O)n1C2)COC(=O)[C@]3(O)CC + Cc1cncc(-c2nc(NCCc3c[nH]c4ccccc34)c3ncn(C(C)C)c3n2)c1
- pIC50 [1]: 8.37
- pIC50 [2]: 8.49
- pIC50 [3]: 8.38
- pIC50 [4]: 8.28
- pIC50 [5]: > 9.02
- viability, T/C [6]: 62.3%
- viability, T/C [7]: 56.1%
- viability, T/C [8]: 38.4%
- viability, T/C [9]: 27.4%
- viability, T/C [10]: 19.4%
- viability, T/C [11]: 13.7%
- viability, T/C [12]: 59.1%
- viability, T/C [13]: 50.6%
- viability, T/C [14]: 39.1%
- viability, T/C [15]: 26.2%
- viability, T/C [16]: 18.3%
- viability, T/C [17]: 13%
- viability, T/C [18]: 67.2%
- viability, T/C [19]: 55%
- viability, T/C [20]: 38.5%
- viability, T/C [21]: 28.1%
- viability, T/C [22]: 19.4%
- viability, T/C [23]: 13.6%
- viability, T/C [24]: 58%
- viability, T/C [25]: 58.1%
- viability, T/C [26]: 42.6%
- viability, T/C [27]: 28%
- viability, T/C [28]: 18.8%
- viability, T/C [29]: 12.3%
- viability, T/C [30]: 36.4%
- viability, T/C [31]: 32.3%
- viability, T/C [32]: 25.5%
- viability, T/C [33]: 16%
- viability, T/C [34]: 11.2%
- viability, T/C [35]: 8.25%

SMILES: COc1ccc([C@@H](O)c2cc(-c3ncnc4cc(N5CCOCC5)ccc34)c(F)cc2Cl)nn1
- viability, T/C (compound 0.0316 µM): 112% and 97% and 106%
- viability, T/C (compound 0.1 µM): 105% and 114% and 103%
- viability, T/C (compound 0.316 µM): 100% and 91.4% and 81.3%
- viability, T/C (compound 1 µM): 90.5% and 90.1% and 83.8%
- viability, T/C (compound 3.16 µM): 66.2% and 61.9% and 69.9%
- viability, T/C (compound 10 µM): 44.8% and 45.4% and 42.3%
- pIC50 (curve of compound): 5.12 and 5.14
